The text below walks through data of ChEMBL document CHEMBL1201862, “PubChem BioAssay data set” (2004).

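The compound was tested at five concentrations on cells cultured in 96-well plates, with a 48-hour exposure period. At the GI50, growth is halved.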 Calls of active or inactive are those of the source. No stated cut-off is given here; in the data, active = GI50 up to about 1.1 µM and inactive = higher.

Test systems include SF-268; HOP-62; HOP-92; SF-295; OVCAR-3; SK-MEL-5; UACC-62; RXF 393; SF-539; K562; IGROV-1; PC-3; KM12; UACC-257; MDA-MB-231; CAKI-1; SNB-75; HCT-15; Hs-578T.
Holding throughout (test): NCI tumour cell line growth inhibition, 48 h

On to `O[C@@H]1C[C@H]2N3CC[C@@]2(c2cc4c(cc2C3)OCO4)[C@H]2O[C@@H]12`, for which the GI50 in the experiment with SF-268 was > 100 µM (inactive); with HOP-62 it was > 100 µM (inactive); in the experiment with HOP-92, > 100 µM (inactive); with SF-295, > 100 µM (inactive); in the experiment on OVCAR-3, > 100 µM (inactive); in the experiment with SK-MEL-5, < 0.01 µM (active). Besides, the GI50 in the experiment with UACC-62 was > 100 µM (inactive); with RXF 393, > 100 µM (inactive); in the experiment on SF-539 it was 0.0178 µM (active); in the experiment with K562, > 100 µM (inactive); with IGROV-1, > 100 µM (inactive); in the experiment on PC-3, > 100 µM (inactive). The GI50 in the experiment with KM12 was > 100 µM (inactive); with UACC-257, 90.4 µM (inactive); in the experiment on MDA-MB-231, > 100 µM (inactive); in the experiment with CAKI-1 it was > 100 µM (inactive); in the experiment on SNB-75, > 100 µM (inactive); in the experiment on HCT-15, greater than 100 µM. Also, the GI50 with Hs-578T was > 100 µM (inactive).
`C=C(C(=O)OC)N1C(=O)CC(C)C1=O` (stereo unspecified): the GI50 in the experiment with SF-268 is 16.7 µM (inactive); in the experiment with HOP-62 it was 17.5 µM (inactive); in the experiment with HOP-92 it was 1.95 µM (inactive); in the experiment on SF-295, 29.1 µM (inactive); in the experiment with OVCAR-3, 8.05 µM (inactive); in the experiment with SK-MEL-5, 16.9 µM (inactive). Further, the GI50 in the experiment on UACC-62 is 15.2 µM (inactive); in the experiment on RXF 393, 9.71 µM (inactive); in the experiment on SF-539 it was 19 µM (inactive); in the experiment on K562, 2.87 µM (inactive); in the experiment on IGROV-1, 15.9 µM (inactive); with PC-3 it was 16.1 µM (inactive). The GI50 with KM12 is 20.3 µM (inactive); in the experiment with UACC-257 it was 12.3 µM (inactive); in the experiment with MDA-MB-231 it was 17.6 µM (inactive); in the experiment on CAKI-1 it was 1.13 µM (inactive); in the experiment with SNB-75 it was 17 µM (inactive); with HCT-15, 7.45 µM. Also, the GI50 in the experiment with Hs-578T is 24.3 µM (inactive).
On to `NC(=O)c1cnc2sc3ccccc3n2c1=O`, for which the GI50 in the experiment with SF-268 was > 100 µM (inactive); with HOP-62 it was > 100 µM (inactive); in the experiment with HOP-92, 91.4 µM (inactive); with SF-295, > 100 µM (inactive); in the experiment with OVCAR-3, > 100 µM (inactive); in the experiment with SK-MEL-5, > 100 µM (inactive). In addition, the GI50 with UACC-62, in the experiment on RXF 393, in the experiment with SF-539, in the experiment with K562, in the experiment with IGROV-1 and in the experiment on PC-3 was > 100 µM (inactive) each time. Also, the GI50 was > 100 µM (inactive) with KM12; > 100 µM (inactive) in the experiment on UACC-257; > 100 µM (inactive) in the experiment with MDA-MB-231; > 100 µM (inactive) in the experiment on CAKI-1; > 100 µM (inactive) in the experiment with SNB-75; greater than 100 µM in the experiment on HCT-15. Besides, the GI50 in the experiment with Hs-578T was 26.4 µM (inactive).
Take `C/C(=N\NC(=S)NC(C)(C)C)c1ccccn1`: the GI50 in the experiment on SF-268 is 1.39 µM (inactive); with HOP-62 it was < 0.0222 µM (active); in the experiment with HOP-92, 0.342 µM (active); in the experiment on SF-295, 0.589 µM (active); in the experiment with OVCAR-3 it was < 0.01 µM (active); with SK-MEL-5 it was 0.153 µM (active). For the same compound, the GI50 with UACC-62 was 0.332 µM (active); in the experiment with RXF 393, < 0.01 µM (active); in the experiment on SF-539, 1.88 µM (inactive); with K562, < 0.01 µM (active); in the experiment on IGROV-1, < 0.01 µM (active); in the experiment on PC-3, < 0.01 µM (active). Further, the GI50 in the experiment with KM12 is 0.574 µM (active); with UACC-257, < 0.01 µM (active); in the experiment with MDA-MB-231 it was < 0.0378 µM (active); in the experiment with CAKI-1 it was < 0.0333 µM (active); in the experiment on SNB-75 it was 11.7 µM (inactive); in the experiment on HCT-15, less than 0.01 µM. Also, in the experiment on Hs-578T, the GI50 is 1.12 µM (inactive).
